Experiments:
[1] = target: T1, human somatostatin receptor type 5 (H-SST5) (Homo sapiens, UniProt P35346); experiment: radioligand competition, CHO-K1 membranes, […]-Tyr3-somatostatin-14; assay type: binding; conditions: read-out: Mean (±SEM) Ki values (nM) / H-SST5 receptor
T1 construct: gene SSTR5; stably expressed in CHO-K1, membranes from Perkin Elmer; printed catalogue number ES-522-M400UA is the same as for type 3 (likely misprint)

[2] = target: T2, rat SST4 receptor (R-SST4) (Rattus norvegicus, UniProt P30937); experiment: LANCE cAMP, inhibition of forskolin-stimulated cAMP, H4 cells; assay type: cell-based; conditions: read-out: Mean (±SEM) IC50 values (nM) / R-SST4
T2 construct: gene Sstr4; H4 cells for cAMP
T2 sequence (P30937 whole entry): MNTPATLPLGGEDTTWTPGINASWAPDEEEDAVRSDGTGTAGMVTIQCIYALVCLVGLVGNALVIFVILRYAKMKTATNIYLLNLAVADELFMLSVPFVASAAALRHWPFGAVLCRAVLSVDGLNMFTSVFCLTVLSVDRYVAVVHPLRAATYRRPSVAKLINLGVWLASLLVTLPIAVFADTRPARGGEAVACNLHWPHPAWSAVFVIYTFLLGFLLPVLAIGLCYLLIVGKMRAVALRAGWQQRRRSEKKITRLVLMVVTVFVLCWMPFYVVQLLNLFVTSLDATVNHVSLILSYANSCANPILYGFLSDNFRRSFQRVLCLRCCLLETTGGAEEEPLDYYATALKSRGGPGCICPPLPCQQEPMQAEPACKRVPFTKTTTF

[3] = target: T3, human somatostatin receptor type 3 (H-SST3) (Homo sapiens, UniProt P32745); experiment: radioligand competition, CHO-K1 membranes, […]-Tyr3-somatostatin-14; assay type: binding; conditions: read-out: Mean (±SEM) Ki values (nM) / H-SST3 receptor
T3 construct: gene SSTR3; stably expressed in CHO-K1, membranes from Perkin Elmer
T3 sequence (P32745 whole entry): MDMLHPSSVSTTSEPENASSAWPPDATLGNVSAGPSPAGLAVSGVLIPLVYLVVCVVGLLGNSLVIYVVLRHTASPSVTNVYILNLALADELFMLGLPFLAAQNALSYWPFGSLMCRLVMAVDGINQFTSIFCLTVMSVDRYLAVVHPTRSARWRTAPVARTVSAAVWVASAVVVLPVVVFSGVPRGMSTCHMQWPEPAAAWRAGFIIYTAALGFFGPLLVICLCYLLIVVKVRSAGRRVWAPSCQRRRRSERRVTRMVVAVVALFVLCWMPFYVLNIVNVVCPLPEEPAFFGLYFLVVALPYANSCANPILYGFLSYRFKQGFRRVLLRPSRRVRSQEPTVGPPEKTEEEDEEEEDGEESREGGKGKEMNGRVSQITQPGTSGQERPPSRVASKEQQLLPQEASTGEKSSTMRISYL

[4] = target: T4, human somatostatin receptor type 1 (H-SST1) (Homo sapiens, UniProt P30872); experiment: as above; assay type: binding; conditions: read-out: Mean (±SEM) Ki values (nM) / H-SST1 receptor
T4 construct: gene SSTR1; stably expressed in CHO-K1, membranes from Perkin Elmer
T4 sequence (P30872 whole entry): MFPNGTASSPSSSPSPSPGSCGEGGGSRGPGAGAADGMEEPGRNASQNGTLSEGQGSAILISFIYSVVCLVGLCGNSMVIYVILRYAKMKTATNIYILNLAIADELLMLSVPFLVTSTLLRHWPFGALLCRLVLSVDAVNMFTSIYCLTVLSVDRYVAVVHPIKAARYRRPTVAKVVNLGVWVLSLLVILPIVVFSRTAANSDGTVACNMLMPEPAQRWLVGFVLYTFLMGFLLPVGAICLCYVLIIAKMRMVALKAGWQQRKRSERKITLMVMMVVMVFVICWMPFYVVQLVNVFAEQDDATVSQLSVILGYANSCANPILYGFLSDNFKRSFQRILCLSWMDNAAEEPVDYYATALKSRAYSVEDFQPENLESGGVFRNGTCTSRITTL

[5] = target: T5, human SST4 receptor (H-SST4) (Homo sapiens, UniProt P31391); experiment: as above; assay type: binding; conditions: read-out: Mean (±SEM) Ki values (nM) / H-SST4 receptor
T5 construct: gene SSTR4; H4 cells (Perkin Elmer) for cAMP
T5 sequence (P31391 whole entry): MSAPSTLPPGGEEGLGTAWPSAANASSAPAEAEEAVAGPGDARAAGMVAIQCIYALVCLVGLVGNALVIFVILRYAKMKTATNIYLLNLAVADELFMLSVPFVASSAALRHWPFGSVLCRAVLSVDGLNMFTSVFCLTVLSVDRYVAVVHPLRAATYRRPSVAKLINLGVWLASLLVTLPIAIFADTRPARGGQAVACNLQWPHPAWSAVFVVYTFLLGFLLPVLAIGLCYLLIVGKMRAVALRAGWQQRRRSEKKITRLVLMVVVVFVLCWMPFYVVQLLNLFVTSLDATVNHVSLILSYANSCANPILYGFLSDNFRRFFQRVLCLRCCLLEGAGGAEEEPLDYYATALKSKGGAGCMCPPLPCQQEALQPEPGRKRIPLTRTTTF

[6] = target: T6, human somatostatin receptor type 2 (H-SST2) (Homo sapiens, UniProt P30874); experiment: as above; assay type: binding; conditions: read-out: Mean (±SEM) Ki values (nM) / H-SST2 receptor
T6 construct: gene SSTR2; stably expressed in CHO-K1, membranes from Perkin Elmer
T6 sequence (P30874 whole entry): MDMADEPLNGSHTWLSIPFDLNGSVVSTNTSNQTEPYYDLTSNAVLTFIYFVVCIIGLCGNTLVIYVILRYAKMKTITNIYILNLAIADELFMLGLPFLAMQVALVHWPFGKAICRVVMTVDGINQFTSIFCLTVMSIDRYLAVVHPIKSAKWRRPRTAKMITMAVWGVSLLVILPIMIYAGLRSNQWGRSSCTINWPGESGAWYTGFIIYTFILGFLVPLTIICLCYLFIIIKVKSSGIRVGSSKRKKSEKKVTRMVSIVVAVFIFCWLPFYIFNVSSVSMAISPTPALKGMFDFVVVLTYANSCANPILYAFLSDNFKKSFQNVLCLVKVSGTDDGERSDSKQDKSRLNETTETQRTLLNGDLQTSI

[7] = target: T5, human SST4 receptor (H-SST4); experiment: LANCE cAMP, inhibition of forskolin-stimulated cAMP, H4 cells; assay type: cell-based; conditions: read-out: Mean (±SEM) IC50 values (nM) / H-SST4
[8] = target: T2, rat SST4 receptor (R-SST4); experiment: radioligand competition, CHO-K1 membranes, […]-Tyr3-somatostatin-14; assay type: binding; conditions: read-out: Mean (±SEM) Ki values (nM) / R-SST4 receptor

T1 sequence (P35346 whole entry): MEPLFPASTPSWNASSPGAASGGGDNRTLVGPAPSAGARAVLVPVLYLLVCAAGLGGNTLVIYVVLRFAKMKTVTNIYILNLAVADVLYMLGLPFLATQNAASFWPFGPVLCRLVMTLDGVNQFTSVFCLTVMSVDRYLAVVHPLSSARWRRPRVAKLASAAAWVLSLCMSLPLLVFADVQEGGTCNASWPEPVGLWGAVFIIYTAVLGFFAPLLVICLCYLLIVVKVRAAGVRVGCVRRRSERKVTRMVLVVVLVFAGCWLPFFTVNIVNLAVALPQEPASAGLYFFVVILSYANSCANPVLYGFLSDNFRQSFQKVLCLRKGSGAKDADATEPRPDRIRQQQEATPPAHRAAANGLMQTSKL

- Ki [1]: 468 ± 156 nM
- IC50 [2]: 0.07 ± 0.005 nM
- Ki [3]: 234 ± 112 nM
- Ki [4]: 589 ± 266 nM
- Ki [5]: 0.56 ± 0.1 nM
- Ki [6]: 25100 nM
- IC50 [7]: 0.05 ± 0.01 nM
- Ki [8]: 0.89 ± 0.64 nM
Compound: Cc1ccc(S(=O)(=O)N[C@@H](CCN)C(=O)N[C@@H](Cc2ccccc2)C(N)=O)c2ccccc12 [J-2156, (1′S,2S)-4amino-N-(1′-carbamoyl-2′-phenylethyl)-2-(4″-methyl-1″-naphthalenesulfonylamino)butanamide]

From PMC5962878, “The Somatostatin Receptor-4 Agonist J-2156 Alleviates Mechanical Hypersensitivity in a Rat Model of Breast Cancer Induced Bone Pain” (Frontiers in Pharmacology, 2018)
